Assay results: patent US20070123586A1, “Nitroso derivatives of diphenylamine” (priority 2003, published 2007)

How the values were obtained:
[1] = Spontaneous nitric oxide release: nitrites+nitrates titrated by Griess colorimetry with nitrate reductase; details: test product final concentration 150 μM, incubated four hours at 37° C., pH 7.5 PBS buffer, Griess reagent, OD 540 nm
Method: A solution of a compound of the invention of the formula I spontaneously releases nitric oxide. The nitrite ions resulting therefrom are titrated by colorimetry by means of a specific reagent (Griess). To take account of any release of nitrate ions in addition to the nitrite ions, bacterial nitrate reductase is added to the reaction medium, which makes it possible to reduce the nitrate ions formed.
The reactions and measurements are performed in transparent 96-well plates. The test products are dissolved extemporaneously at a concentration of 3 mM in dimethyl sulfoxide. 95 μl of a reagent comprising nitrate reductase (0.18 U/ml in 0.100 mM pH 7.5, PBS buffer, β-NADPH 210 μM, FAD 5 μM) and 5 μl of the solution of the test product (final concentration of 150 μM) are then introduced into each well. After stirring, the mixture is incubated for four hours at 37° C. The reaction is then quenched by addition of 100 μl of the Griess reagent (Sigma G4410). This reagent is left to act for five minutes at room temperature, and the optical density is then read at 540 nm. This value is proportional to the concentration of nitrites+nitrates in the medium. A calibration range is made for each plate using NaNO2.
The results are expressed in μmol/l (μM) of nitrites+nitrates released in Table I for some of the compounds of the formula I illustrated below.

fatty Zucker rats = experiment: Hypotriglyceridaemiant activity in fatty Zucker rats; assay type: in vivo, rat; details: 9-week-old male Zucker rats, 200 mg/kg/day p.o. for eight days, after fasting four hours
Method: The compounds were tested on fatty Zucker rats (Zucker L. M. et al., 1961, Fatty a new mutation in the rat, J. Hered., 52: 275-278). This animal is hyperphagic, obese and hyperinsulinaemic. It develops resistance to insulin, it is hyperlipidaemic, and has a large hypertriglyceridaemia.
9-week-old male Zucker rats were treated for eight days with the compounds of Example 2 and Example 5 at a dose of 200 mg/kg/day p.o. After fasting for four hours, a blood sample is taken to recover the plasma. […] The compound of Example 5 has a 21% […] effect (p<0.05) and reduces insulin by 45% (p<0.05).

Human LDLs = experiment: Antioxidant effect: cupric ion-induced oxidation of human LDL (fluorescence); assay type: biochemical; details: human LDL 120 μg/ml, CuCl2, 37° C., fluorescence difference 2 h vs 24 h, from three concentrations
Method: Human LDLs placed in aqueous solution in the presence of cupric ions, become spontaneously oxidized on their protein component, apolipoprotein-B. This oxidation makes the particle fluorescent, which is exploited to measure a pharmacological effect.
The reactions and measurements are performed in black 96-well plates. 10 μl of a solution of the test product dissolved in dimethyl sulfoxide are first mixed with 170 μl of a solution of human LDL at a concentration of 120 μg/ml and 20 μl of 100 μM CuCl2. After stirring, the mixture is incubated for 2 hours at 37° C., and a first fluorescence reading is taken (excitation at 360 nm, reading at 460 nm). The mixture is then incubated for a further 22 hours, to take a second reading under the same conditions. The difference is proportionately smaller the greater the antioxidant power of the test product. Probucol is used as reference product at a concentration of 10 μM.
The concentrations that inhibit 50% (IC50) of the oxidation are prepared from three concentrations of the test product. They are given in Table II below for some of the compounds of the formula I given as examples below.

melting point | Compound | Nitrites—Nitrates released [1] | reduction in triglycerides (plasma) (fatty Zucker rats) | reduction of insulinaemia (plasma insulin) (fatty Zucker rats) | IC50 (Human LDLs)
– | O=NN(c1ccc(C(=O)O)cc1)c1ccc(C(F)(F)F)cc1 [Example 5, 4-{Nitroso[4-(trifluoromethyl)phenyl]amino}benzoic acid] | 108 µM | 21% | 45% | –
– | O=NN(c1ccc(C(=O)O)cc1)c1ccc([N+](=O)[O-])cc1 [Example 13] | 86 µM | – | – | 4.6 µM
88 to 90 °C | COc1ccc(N(N=O)c2ccc(C#N)cc2)cc1 [Example 6, 4-[(4-Methoxyphenyl)(nitroso)amino]benzonitrile] | 43 µM | – | – | –
– | N#Cc1ccc(N(N=O)c2ccc(C(=O)O)cc2)cc1 [Example 14] | 69 µM | – | – | –
169 to 171 °C | COc1ccc(N(N=O)c2ccc(C(=O)O)cc2)cc1 [Example 2, 4-[(4-Methoxyphenyl)(nitroso)amino]benzoic acid] | 87 µM | 58% | 47% | 17 µM
– | CCOC(=O)c1ccc(N(N=O)c2ccc(C#N)cc2)cc1 [Example 10] | 76 µM | – | – | 6.2 µM
– | O=NN(c1ccc(F)cc1)c1ccc(C(=O)O)cc1 [Example 19] | 79 µM | – | – | –
– | COc1ccc(N(N=O)c2ccc(C(N)=O)cc2)cc1 [Example 42] | 79 µM | – | – | –
– | COc1ccc(N(N=O)c2ccc(CO)cc2)cc1 [Example 8, {4-[(4-Methoxyphenyl)(nitroso)amino]phenyl}methanol] | 88 µM | – | – | 18.4 µM
– | CCOC(=O)c1ccc(N(N=O)c2ccc(S(C)(=O)=O)cc2)cc1 [Example 12] | 38 µM | – | – | –
– | O=NN(c1ccc(C(=O)O)cc1)c1ccc(C(=O)O)cc1 [Example 30, 4,4′-(Nitrosoimino)dibenzoic acid] | 58 µM | – | – | –
– | COc1ccc(N(N=O)c2ccc(CC(=O)O)cc2)cc1 [Example 17] | 58 µM | – | – | 11.6 µM
– | CS(=O)(=O)c1ccc(N(N=O)c2ccc(C(=O)O)cc2)cc1 [Example 15] | 88 µM | – | – | –
– | COc1ccc(N(N=O)c2ccc(C(C)=O)cc2)cc1 [Example 18] | 81 µM | – | – | –
